{
  "source": "patent US20120258172A1",
  "about": "“Compositions For The Treatment of Central Nervous System Disorders Including Depression Employing Novel Drug Combination Therapy To Reduce Suicidality In Patients” (priority 2010, published 2012)",
  "key": {"[1]": {"experiment": "Phase II trial: serum lithium level", "type": "in vivo, human", "conditions": "subgroup n = 11 of 40 on 300 mg lithium carbonate/day + 20 mg citalopram (3 at 0.5, 3 at 0.6, 5 at 0.7); week 4", "experimental": "(§5) All subjects received 20 mg citalopram and were randomized to either 300 mg lithium carbonate/day or placebo for 4 weeks of Double-Blind Treatment. Patients were instructed to take one capsule from the bottle and two tablets from the blister card one time daily, in the morning, orally with food. If the patient was unable to tolerate morning dosing, patient may be switched to evening dosing as long as there was 24 hours minimum between doses."}, "[2]": {"tested_on": "severely depressed patients with suicidal thoughts and behaviors", "experiment": "Phase II trial: Montgomery-Åsberg Depression Rating Scale (MADRS)", "type": "in vivo, human", "conditions": "all patients assigned, n = 40", "text": "(§1) Ninety-three patients were screened and 80 subjects were identified who were between the ages of 18 to 75, inclusive, and met the criteria for major depressive disorder (MDD), dysthymia, depression not otherwise specified and/or borderline personality disorder as defined by Diagnostic and Statistical Manual-IV-TR and confirmed by the Mini International Neuropsychological Interview (MINI).\n(§2) Selected subjects scored >15 on the Montgomery-Åsberg Depression Rating Scale and >8 on the Sheehan Suicidality Tracking Scale (S-STS) at Screening and Baseline Visits. […]\n(§3) Efficacy was measured by taking S-STS (Sheehan-Suicidality Tracking Scale (Sheehan, 2009)) scores at Baseline and at each visit for 4 weeks of treatment or until end-of-treatment and measuring the change from baseline in the S-STS total score at week 4. […]\n(§4) All significance tests were two-sided. Statistical significance was assessed at the p≦0.05 level for main effects, and significance at the p≦0.10 level was considered a trend indicating efficacy. […]"}, "[3]": {"tested_on": "severely depressed patients with suicidal thoughts and behaviors", "experiment": "Phase II trial: Beck Scale for Suicide Ideation (BSS)", "type": "in vivo, human", "conditions": "n = 40 per arm", "text": "as §1, §2, §3, §4"}, "[4]": {"tested_on": "severely depressed patients with suicidal thoughts and behaviors", "experiment": "Phase II trial: adverse events", "type": "in vivo, human", "procedure": "Eligible subjects were evaluated for safety parameters prior to and throughout the screening through a variety of methods including an ECG, physical exam, vital sign taking and clinical laboratory testing. A standard 12-lead ECG was performed at Screening (Visit 1) and at Week 4 (Visit 6 or Early Termination Visit). Physical examinations included determination of general appearance, mental status, skin, neck (including thyroid), eyes, ears, nose, throat, heart, lungs, abdomen, lymph nodes, musculoskeletal system, and nervous system. Vital signs included respiratory rate, radial pulse and systolic and diastolic blood pressures. Vital signs were collected in the seated position. Clinical Laboratory Testing Parameters included a Complete Metabolic Panel (Na, K, Cl, CO2, Glu, BUN, Cr, Ca, TP, Alb, TBili, AP, AST, ALT), Hematology CBC (Hgb, Hct, RBC, WBC, Pit, Diff) and TSH (w/reflex T-4). Serum HCG is performed for all females, and Urine Analysis is completed for all subjects.\nEfficacy was measured by taking S-STS (Sheehan-Suicidality Tracking Scale (Sheehan, 2009)) scores at Baseline and at each visit for 4 weeks of treatment or until end-of-treatment and measuring the change from baseline in the S-STS total score at week 4. Secondary efficacy variables were the BHS (Beck Hopelessness Scale (Beck, Steer, 1988)), BSS (Beck Scale for Suicide Ideation (Beck and Steer, 1991)), C-SSRS (Columbia Suicide Severity Rating Scale (Posner et al., 2009) and CGI (Clinical Global Impression Study (Guy, 1976)) changes at week 4. Safety measures were collected and evaluated throughout the trial. These included Adverse Events (AEs), laboratory parameters, physical examinations, ECGs and vital signs and weight measurements. Adverse events were any untoward medical event occurring in a subject administered study drug, irrespective of whether it has a causal relationship to the study drug. An adverse event could therefore be any unfavorable or unintended sign (including abnormal laboratory findings, for example), symptom, or disorder temporarily associated with study drug, whether or not considered related to the study drug. Adverse Events among the 80 participants were as follows: […]"}, "[5]": {"tested_on": "severely depressed patients with suicidal thoughts and behaviors", "experiment": "Phase II trial: Beck Hopelessness Scale (BHS)", "type": "in vivo, human", "conditions": "n = 40 per arm", "text": "as §1, §2, §3, §4"}, "[6]": {"tested_on": "severely depressed patients with suicidal thoughts and behaviors", "conditions": "of 40 patients in the arm", "experimental": "as §5\nSubjects were considered to have completed the study if they completed all of the visits."}, "[7]": {"tested_on": "severely depressed patients with suicidal thoughts and behaviors", "experiment": "Phase II trial: Sheehan Suicidality Tracking Scale (S-STS)", "type": "in vivo, human", "text": "as §1\nSelected subjects scored >15 on the Montgomery-Åsberg Depression Rating Scale and >8 on the Sheehan Suicidality Tracking Scale (S-STS) at Screening and Baseline Visits. Subjects were excluded if they had current, unstable and significant medical conditions (a history of unstable Thyroid disorders, a history of seizure disorders, tumors or other central nervous system (CNS) condition that predisposes the patient to risk of seizure), pregnant or lactating, had any abnormal clinical laboratory test results, or ECG results which were judged by the investigator as clinically significant, a history of intolerance or hypersensitivity to citalopram, other SSRIs, or lithium, a history or current diagnosis of bipolar mood disorder, psychosis, schizophrenia or dementia, were currently involved in another clinical trial or had participated in another clinical trial less than thirty days prior, or had current or prior treatment with citalopram or escitalopram. Psychotropic medications (anti-psychotics, anti-depressants, and mood stabilizers) were excluded during the treatment phase and required a twenty-four hour washout period prior to the first dose of study medication. Diuretics, analgesics, benzodiazepines and opiates were used with caution.\nEfficacy was measured by taking S-STS (Sheehan-Suicidality Tracking Scale (Sheehan, 2009)) scores at Baseline and at each visit for 4 weeks of treatment or until end-of-treatment and measuring the change from baseline in the S-STS total score at week 4. Secondary efficacy variables were the BHS (Beck Hopelessness Scale (Beck, Steer, 1988)), BSS (Beck Scale for Suicide Ideation (Beck and Steer, 1991)), C-SSRS (Columbia Suicide Severity Rating Scale (Posner et al., 2009) and CGI (Clinical Global Impression Study (Guy, 1976)) changes at week 4. Safety measures were collected and evaluated throughout the trial. These included Adverse Events (AEs), laboratory parameters, physical examinations, ECGs and vital signs and weight measurements. Adverse events were any untoward medical event occurring in a subject administered study drug, irrespective of whether it has a causal relationship to the study drug. An adverse event could therefore be any unfavorable or unintended sign (including abnormal laboratory findings, for example), symptom, or disorder temporarily associated with study drug, whether or not considered related to the study drug. Adverse Events among the 80 participants were as follows:\nAll significance tests were two-sided. Statistical significance was assessed at the p≦0.05 level for main effects, and significance at the p≦0.10 level was considered a trend indicating efficacy. Missing values were handled using the last observation carried forward (LOCF) technique. The primary analysis population for inference was the intention-to-treat (ITT) population."}, "[8]": {"tested_on": "severely depressed patients with suicidal thoughts and behaviors", "experiment": "Phase II trial: Clinical Global Impression (CGI) severity", "type": "in vivo, human", "conditions": "n = 40 per arm", "text": "as §1, §2, §3, §4"}},
  "data": [
    {"compound": "[Li]", "note": "[lithium]", "values": [
      {"measurement": "serum lithium level", "setting": "[1]", "result": "≥ 0.5", "unit": "mEq/L"}
    ]},
    {"compound": "CN(C)CCCC1(c2ccc(F)cc2)OCc2cc(C#N)ccc21", "note": "(stereo not shown) [Citalopram + Placebo, citalopram]", "values": [
      {"measurement": "Mean Total MADRS Change Score", "setting": "[2]", "result": 9.8},
      {"measurement": "BSS, Mean (SD)", "setting": "[3]; Baseline", "result": "16.2 (6.7)"},
      {"measurement": "BSS, Mean (SD)", "setting": "[3]; End of Study (week 4, LOCF)", "result": "9.1 (8.2)"},
      {"measurement": "Adverse Events per Patient", "setting": "[4]; all patients assigned, n = 40", "result": 1.0},
      {"measurement": "Anxiousness, % of patients", "setting": "[4]; n = 40 per arm, 4 weeks", "result": 3, "unit": "%"},
      {"measurement": "Anxiousness, number of patients", "setting": "[4]; n = 40 per arm, 4 weeks", "result": 1},
      {"measurement": "Common Cold, % of patients", "setting": "[4]; n = 40 per arm, 4 weeks", "result": 5, "unit": "%"},
      {"measurement": "Common Cold, number of patients", "setting": "[4]; n = 40 per arm, 4 weeks", "result": 2},
      {"measurement": "Decreased Appetite, % of patients", "setting": "[4]; n = 40 per arm, 4 weeks", "result": 5, "unit": "%"},
      {"measurement": "Decreased Appetite, number of patients", "setting": "[4]; n = 40 per arm, 4 weeks", "result": 2},
      {"measurement": "Dizziness, % of patients", "setting": "[4]; n = 40 per arm, 4 weeks", "result": 5, "unit": "%"},
      {"measurement": "Dizziness, number of patients", "setting": "[4]; n = 40 per arm, 4 weeks", "result": 2},
      {"measurement": "Headaches, % of patients", "setting": "[4]; n = 40 per arm, 4 weeks", "result": "1 (1%)"},
      {"measurement": "Headaches, number of patients", "setting": "[4]; n = 40 per arm, 4 weeks", "result": "1 (1%)"},
      {"measurement": "Nausea, % of patients", "setting": "[4]; n = 40 per arm, 4 weeks", "result": 3, "unit": "%"},
      {"measurement": "Nausea, number of patients", "setting": "[4]; n = 40 per arm, 4 weeks", "result": 5},
      {"measurement": "Restlessness, % of patients", "setting": "[4]; n = 40 per arm, 4 weeks", "result": 5, "unit": "%"},
      {"measurement": "Restlessness, number of patients", "setting": "[4]; n = 40 per arm, 4 weeks", "result": 2},
      {"measurement": "Somnolence, % of patients", "setting": "[4]; n = 40 per arm, 4 weeks", "result": 18, "unit": "%"},
      {"measurement": "Somnolence, number of patients", "setting": "[4]; n = 40 per arm, 4 weeks", "result": 7},
      {"measurement": "Total Events (most frequent and serious adverse events)", "setting": "[4]; n = 40 per arm, 4 weeks", "result": 23},
      {"measurement": "Vomiting, % of patients", "setting": "[4]; n = 40 per arm, 4 weeks", "result": 3, "unit": "%"},
      {"measurement": "Vomiting, number of patients", "setting": "[4]; n = 40 per arm, 4 weeks", "result": 1},
      {"measurement": "BHS, Mean (SD)", "setting": "[5]; Baseline", "result": "16.3 (3.4)"},
      {"measurement": "BHS, Mean (SD)", "setting": "[5]; End of Study (week 4, LOCF)", "result": "11.8 (5.4)"},
      {"measurement": "patients who discontinued participation because of Adverse Event", "setting": "[6]", "result": 1},
      {"measurement": "# With Full S-STS Symptom Remission", "setting": "[7]; all patients assigned, n = 40", "result": 6},
      {"measurement": "# With No change in S-STS Symptoms", "setting": "[7]; all patients assigned, n = 40", "result": 12},
      {"measurement": "# with Worsening of S-STS Symptoms", "setting": "[7]; all patients assigned, n = 40", "result": 2},
      {"measurement": "% With Full S-STS Symptom Remission", "setting": "[7]; all patients assigned, n = 40", "result": "(15%)"},
      {"measurement": "% With No change in S-STS Symptoms", "setting": "[7]; all patients assigned, n = 40", "result": "(30%)"},
      {"measurement": "% with Worsening of S-STS Symptoms", "setting": "[7]; all patients assigned, n = 40", "result": "(5%)"},
      {"measurement": "Mean Total S-STS Change Score", "setting": "[7]; all patients assigned, n = 40", "result": 4.8},
      {"measurement": "change in the mean total S-STS", "setting": "[7]; among the 64 completers", "result": "5.4±5.3"},
      {"measurement": "CGI (Severity), Mean (SD)", "setting": "[8]; Baseline", "result": "4.9 (0.8)"},
      {"measurement": "CGI (Severity), Mean (SD)", "setting": "[8]; End of Study (week 4, LOCF)", "result": "3.3 (1.8)"}
    ]}
  ]
}
